The target of data set [1] is T1, Human recombinant MAO-B (hMAO-B) (Homo sapiens, UniProt P27338).
T1 construct: purchased Sigma-Aldrich; host or cells: insect cells
T1 sequence (P27338 1-520): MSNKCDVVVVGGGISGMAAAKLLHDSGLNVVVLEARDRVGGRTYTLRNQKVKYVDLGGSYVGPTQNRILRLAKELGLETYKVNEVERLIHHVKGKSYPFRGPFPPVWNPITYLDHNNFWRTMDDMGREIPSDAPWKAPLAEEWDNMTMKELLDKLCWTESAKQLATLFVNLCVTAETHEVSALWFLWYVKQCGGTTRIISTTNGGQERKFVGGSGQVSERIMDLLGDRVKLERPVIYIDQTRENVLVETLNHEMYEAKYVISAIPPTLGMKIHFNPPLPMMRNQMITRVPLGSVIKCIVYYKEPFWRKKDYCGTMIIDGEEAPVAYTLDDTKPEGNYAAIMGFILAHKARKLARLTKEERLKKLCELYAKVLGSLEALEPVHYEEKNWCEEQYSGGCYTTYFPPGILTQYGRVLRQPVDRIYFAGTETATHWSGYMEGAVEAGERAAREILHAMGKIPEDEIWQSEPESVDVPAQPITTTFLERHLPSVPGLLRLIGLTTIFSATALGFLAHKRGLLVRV
The data set is described as follows: MAO-B inhibition assay (Amplex Red fluorescence, benzylamine substrate). Conditions: single dose 10 µM. The format is biochemical. On the procedure:
The biological evaluation of the tested compounds over both MAO-A and MAO-B was performed following the previously reported method. The MAO activity was measured in relative fluorescence units (RFU) evoked by peroxidase-catalyzed oxidation of Amplex Red® to resorufin, in which H2O2 generated by MAO reaction was used as the electron donor. Human recombinant MAO-A (hMAO-A) and MAO-B (hMAO-B) enzymes expressed in insect cells were obtained from Sigma-Aldrich. The 2 μL of test compound in DMSO (final concentration: 1–10 μM) was treated with 98 μL of hMAO enzyme solution in 50 mM sodium phosphate buffer (pH 7.4, final protein amounts: ~1.25 μg protein/well for MAO-A and ~2.5 μg protein/well for MAO-B) on 96-well black plate and incubated for 15 min at 37 °C. Then, 100 μL of reaction working solution which is a mixed solution of 400 μM Amplex Red® (Cayman, final concentration: 200 μM), 2 U/mL horseradish peroxidase (Sigma-Aldrich, final concentration: 1 U/mL) and 2 mM substrate (p-tyramine for MAO-A, benzylamine for MAO-B, Sigma-Aldrich, final concentration: 1 mM) in 50 mM sodium phosphate buffer (pH 7.4) were added and incubated for 20 min at 37 °C in the dark. The fluorescent intensity was quantified using a microplate reader (SpectraMax®i3, Molecular Device) with an excitation at 545 nm and an emission at 590 nm. The 50% inhibitory concentrations (IC50) of compounds were determined as the mean ± S.E.M. in triplicate from the dose-response inhibition curves using SigmaPlot® 13.0 (Systat Software Inc., San Jose, CA, USA).

`O=C(Nc1cc(Cl)cc(Cl)c1)Nc1ccc2c(ccn2C(=O)c2cccc(F)c2)c1` [Compound 4h, 1-(3,5-Dichlorophenyl)-3-(1-(3-fluorobenzoyl)-1H-indol-5-yl)urea]: in data set [1], the inhibition at 10 µM was 38.6 ± 1.6%.

Regarding `O=C(Nc1ccc(N2CCOCC2)cc1)Nc1ccc2c(ccn2C(=O)c2cccc(F)c2)c1` [Compound 4n, 1-(1-(3-Fluorobenzoyl)-1H-indol-5-yl)-3-(4-morpholinophenyl)urea], the inhibition at 10 µM in data set [1] worked out at 32.9 ± 0.3%.

Turning to `O=C(c1cccc(F)c1)n1ccc2cc(NC(=S)NCCN3CCOCC3)ccc21` [Compound 5d, 1-(1-(3-Fluorobenzoyl)-1H-indol-5-yl)-3-(2-morpholinoethyl)thiourea], the inhibition at 10 µM in data set [1] came to 46.8 ± 0.2%.

`O=C(Nc1ccc([N+](=O)[O-])cc1)Nc1ccc2c(ccn2C(=O)c2cccc(F)c2)c1` [Compound 4e, 1-(1-(3-Fluorobenzoyl)-1H-indol-5-yl)-3-(4-nitrophenyl)urea] showed a melting point of 249.1 to 250.1 °C. In addition, the inhibition at 10 µM in data set [1] turned out to be 47.9 ± 1.6%.

Compound `O=C(NCc1ccc2c(c1)OCO2)c1ccc2[nH]ccc2c1` [Compound 8d, N-(benzo[d][1,3]dioxol-5-ylmethyl)-1H-indole-5-carboxamide] returned a melting point of 131.6 to 132.6 °C. In addition, the inhibition at 10 µM in data set [1] is 15.3 ± 0.8%.

With `CCOC(=O)CNC(=O)Nc1ccc2c(ccn2C(=O)c2cccc(F)c2)c1` [Compound 4b, Ethyl ((1-(3-fluorobenzoyl)-1H-indol-5-yl)carbamoyl)glycinate], the melting point lay in the range of 203.3 to 204.3 °C. The inhibition at 10 µM in data set [1] came to 9.9 ± 1.5%.

The compound `CCOC(=O)Nc1ccc2c(ccn2C(=O)c2cccc(F)c2)c1` [Compound 6b, Ethyl (1-(3-fluorobenzoyl)-1H-indol-5-yl)carbamate] had a melting point of 136.5 to 137.5 °C. Also, the inhibition at 10 µM in data set [1] came to 33.8 ± 2.3%.

Consider `O=C(Nc1ccc2c(ccn2C(=O)c2cccc(F)c2)c1)c1coc2ccccc2c1=O` [Compound 6e, N-(1-(3-fluorobenzoyl)-1H-indol-5-yl)-4-oxo-4H-chromene-3-carboxamide], for which the melting point was in the range of 226.6 to 227.6 °C. Besides, the inhibition at 10 µM in data set [1] was determined as 59.6 ± 0.3%.

On to `O=C(Nc1ccc(Oc2ccccc2)cc1)Nc1ccc2c(ccn2C(=O)c2cccc(F)c2)c1` [Compound 4m, 1-(1-(3-Fluorobenzoyl)-1H-indol-5-yl)-3-(4-phenoxyphenyl)urea], for which the melting point lay in the range of 235.2 to 236.2 °C. Moreover, the inhibition at 10 µM in data set [1] turned out to be 38.1 ± 0.5%.

`CCOC(=O)NC(=S)Nc1ccc2c(ccn2C(=O)c2cccc(F)c2)c1` [Compound 5a, 1-Ethoxycarbonyl-3-(1-(3-fluorobenzoyl)-1H-indol-5-yl)thiourea] displayed a melting point of 199.4 to 200.4 °C. Further, in data set [1], the inhibition at 10 µM is 15.5 ± 1.1%.

For the compound `COc1ccc(NC(=O)Nc2ccc3c(ccn3C(=O)c3cccc(F)c3)c2)cc1` [Compound 4f, 1-(1-(3-Fluorobenzoyl)-1H-indol-5-yl)-3-(4-methoxyphenyl)urea], in data set [1], the inhibition at 10 µM was 32.5 ± 1.4%.

As to `O=C(Nc1ccc(Cl)c(Cl)c1)Nc1ccc2c(ccn2C(=O)c2cccc(F)c2)c1` [Compound 4j, 1-(3,4-Dichlorophenyl)-3-(1-(3-fluorobenzoyl)-1H-indol-5-yl)urea], the inhibition at 10 µM in data set [1] turned out to be 53.5 ± 0.3%.

Regarding `COC(=O)c1ccc2c(ccn2C(=O)c2cccc(F)c2)c1` [Compound 7a, Methyl 1-(3-fluorobenzoyl)-1H-indole-5-carboxylate], the melting point is 103.4 to 104.4 °C. In data set [1], the inhibition at 10 µM was found to be 49.8 ± 0.3%.

`O=C(Nc1ccc2c(ccn2C(=O)c2cccc(F)c2)c1)c1ccc(Cl)c(Cl)c1` [Compound 6d, 3,4-Dichloro-N-(1-(3-fluorobenzoyl)-1H-indol-5-yl)benzamide] gave a melting point of 237.6 to 238.6 °C. Further, the inhibition at 10 µM in data set [1] came to 53 ± 0.3%.

Turning to `CCOC(=O)C(=O)Nc1ccc2c(ccn2C(=O)c2cccc(F)c2)c1` [Compound 6c, Ethyl 2-((1-(3-fluorobenzoyl)-1H-indol-5-yl)amino)-2-oxoacetate], the inhibition at 10 µM in data set [1] was 35.5 ± 1.5%.

For `COc1cc(NC(=O)Nc2ccc3c(ccn3C(=O)c3cccc(F)c3)c2)cc(OC)c1` [Compound 4g, 1-(3,5-Dimethoxyphenyl)-3-(1-(3-fluorobenzoyl)-1H-indol-5-yl)urea], the melting point is 235.6 to 236.6 °C. The inhibition at 10 µM in data set [1] was found to be 55.7 ± 0.2%.

As for `COc1cc(NC(=S)Nc2ccc3c(ccn3C(=O)c3cccc(F)c3)c2)cc(OC)c1` [Compound 5h, 1-(3,5-Dimethoxyphenyl)-3-(1-(3-fluorobenzoyl)-1H-indol-5-yl)thiourea], the melting point lay in the range of 171.1 to 172.1 °C. Moreover, the inhibition at 10 µM in data set [1] was determined as 32.5 ± 0.5%.

The compound `O=C(c1cccc(F)c1)n1ccc2cc(NC(=S)NCCCl)ccc21` [Compound 5b, 1-(2-Chloroethyl)-3-(1-(3-fluorobenzoyl)-1H-indol-5-yl)thiourea] showed a melting point of 221.5 to 222.5 °C. Besides, in data set [1], the inhibition at 10 µM is 45.6 ± 1.2%.

Regarding `CCNC(=O)Nc1ccc2c(ccn2C(=O)c2cccc(F)c2)c1` [Compound 4a, 1-Ethyl-3-(1-(3-fluorobenzoyl)-1H-indol-5-yl)urea], the inhibition at 10 µM in data set [1] amounted to 46.2 ± 1.1%.

With `O=C(Nc1ccc(F)c(Cl)c1)c1ccc2[nH]ccc2c1` [Compound 8c, N-(3-chloro-4-fluorophenyl)-1H-indole-5-carboxamide], the inhibition at 10 µM in data set [1] turned out to be 34.2 ± 0.2%.

Turning to `O=C(NCCCl)Nc1ccc2c(ccn2C(=O)c2cccc(F)c2)c1` [Compound 4c, 1-(2-Chloroethyl)-3-(1-(3-fluorobenzoyl)-1H-indol-5-yl)urea], the melting point lay in the range of 191.3 to 192.3 °C. The inhibition at 10 µM in data set [1] was 26.6 ± 0.6%.

Consider `O=C(c1cccc(F)c1)n1ccc2cc(NC(=S)Nc3ccc([N+](=O)[O-])cc3)ccc21` [Compound 5g, 1-(1-(3-Fluorobenzoyl)-1H-indol-5-yl)-3-(4-nitrophenyl)thiourea], for which the inhibition at 10 µM in data set [1] was determined as 30.6 ± 0.9%.

Take `O=C(Nc1ccc2c(ccn2C(=O)c2cccc(F)c2)c1)NC1CCCCC1` [Compound 4d, 1-Cyclohexyl-3-(1-(3-fluorobenzoyl)-1H-indol-5-yl)urea]: the melting point lay in the range of 222.7 to 223.7 °C. In data set [1], the inhibition at 10 µM stood at 44 ± 0.8%.

Consider `O=C(Nc1ccc(Cl)c(C(F)(F)F)c1)Nc1ccc2c(ccn2C(=O)c2cccc(F)c2)c1` [Compound 4k, 1-(4-Chloro-3-(trifluoromethyl)phenyl)-3-(1-(3-fluorobenzoyl)-1H-indol-5-yl)urea], for which the melting point was in the range of 210.9 to 211.9 °C. Besides, the inhibition at 10 µM in data set [1] amounted to 42.1 ± 1.7%.

Consider `O=C(c1cccc(F)c1)n1ccc2cc(NC(=S)Nc3ccc(N4CCOCC4)cc3)ccc21` [Compound 5c, 1-(1-(3-Fluorobenzoyl)-1H-indol-5-yl)-3-(4-morpholinophenyl)thiourea], for which the melting point was in the range of 192.7 to 193.7 °C. Further, the inhibition at 10 µM in data set [1] came to 43.9 ± 1.1%.

`O=C(c1cccc(F)c1)n1ccc2cc(NC(=S)NCCN3CCCCC3)ccc21` [Compound 5e, 1-(1-(3-Fluorobenzoyl)-1H-indol-5-yl)-3-(2-(piperidin-1-yl)ethyl)thiourea] registered a melting point of 187.1 to 188.1 °C. Further, the inhibition at 10 µM in data set [1] came to 44.7 ± 0.5%.

Take `O=C(c1cccc(F)c1)n1ccc2cc(NC(=S)Nc3ccc(Cl)c(Cl)c3)ccc21` [Compound 5i, 1-(3,4-Dichlorophenyl)-3-(1-(3-fluorobenzoyl)-1H-indol-5-yl)thiourea]: the melting point is 193.4 to 194.4 °C. For the same compound, in data set [1], the inhibition at 10 µM came out at 59.8 ± 0.4%.

In turn, `O=C(Nc1ccc2c(ccn2C(=O)c2cccc(F)c2)c1)c1ccnc([N+](=O)[O-])c1` [Compound 6a, N-(1-(3-Fluorobenzoyl)-1H-indol-5-yl)-2-nitroisonicotinamide] came in with a melting point of 278.1 to 279.1 °C. Besides, the inhibition at 10 µM in data set [1] came to 26.8 ± 1.3%.

For `O=C(NCCc1ccc(F)cc1)Nc1ccc2c(ccn2C(=O)c2cccc(F)c2)c1` [Compound 4l, 1-(1-(3-Fluorobenzoyl)-1H-indol-5-yl)-3-(4-fluorophenethyl)urea], the melting point lay in the range of 231.5 to 232.5 °C. Further, the inhibition at 10 µM in data set [1] stood at 42 ± 0.6%.

Compound `O=C(c1cccc(F)c1)n1ccc2cc(NC(=S)Nc3cccnc3)ccc21` [Compound 5j, 1-(1-(3-Fluorobenzoyl)-1H-indol-5-yl)-3-(pyridin-3-yl)thiourea] yielded a melting point of 144.9 to 145.9 °C. Further, in data set [1], the inhibition at 10 µM was determined as 51.1 ± 0.4%.

A word on the inhibition: it is the share of the control response that was lost under treatment. For orientation: melting point means the temperature, or range, at which the solid turns liquid.
